{"source": "ChEMBL document CHEMBL1158677", "about": "“New Diterpene Lactones from the Sponge Spongia matamata” (J Nat Prod, 1998)", "tested_on": "Artemia", "experiment": "Toxicity in brine shrimp", "type": "organism-based", "settings": "in vivo; call rule not given here"}
{"compound": "C[C@]12CC(=O)O[C@@](C)(CO)[C@@H]1CC[C@@]1(C)c3cocc3CC[C@H]21", "values": [{"measurement": "Activity", "result": "Not Active"}]}
